Where a name gives a salt, the structure may show the parent alone.
Key:
[1] = system: WT pNL4-3; experiment: CA-SP1 accumulation assay, WT NL4-3; assay type: cell-based, HIV-1; conditions: HeLa or 293T cells; for % CA-SP1 Accumulation 10 nM NL4-3: 10 nM compound
Outline: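 HeLa or 293T cells transfected with proviral clone, maturation inhibitors present through transfection and labeling; at 24 h, [^35S]Met/Cys labeling 2-3 h. Virions pelleted by ultracentrifugation, lysed, CA and CA-SP1 resolved by SDS-PAGE and quantified by phosphorimaging.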

[2] = Cytotoxicity assay CellTitre-Blue, HEK-293T; assay type: cell-based; conditions: human, HEK-293T cells, read-out: Cytotoxicity CC50 HEK293T
Experimental: Cytotoxicity assays. Cytotoxicity assays were performed using the CellTitre-Blue Cell Viability Assay kit (Promega, USA) as per manufacturer's recommendations. HEK-293T and HUT-R5 cell lines were maintained in the presence of serial dilutions of the compounds for 4 days and treated with CellTitre-Blue reagent for 4 h at 37° C. The fluorescent signals were recorded at 530/25excision and 590/35emission using BioTek microplate reader. The 50% cytotoxicity concentrations (CC50s) were determined as the compound concentrations that reduced the fluorescent signals to 50% relative to DMSO only controls.

[3] = system: HIV-1 clade C pindieC1; experiment: CA-SP1 accumulation assay (immunoblot), clade C pindieC1; assay type: cell-based; conditions: head prints K3016
Experimental: Compound evaluation was performed against a panel of HIV-1 Clade C isolates K3016, pindieC1, and ZM247. The three isolates all contain the SP1-A7V. Clade B NL4-3 was included as the […] control.
Plasmids, tissue culture and transfections. HIV-1 clade B molecular clone NL4-3 and cade C clones K3016, ZM247 were obtained from Dr. Christina Ochsenbauer, University of Alabama, USA. Both K3016 and ZM247 were constructed using viral strains from South Africa. The HIV-1 clade C molecular clone pindieC1 was obtained from Dr. Uday Ranga, JNCASR, India. This clone was constructed using an HIV strain from India. HEK-293T and TZM-bl cells were propagated in Dulbecco's modified Eagle's medium (DM4EM) containing 10% fetal bovine serum (FBS). HUT-R5 cells were propagated in RPM 1640 medium supplemented with 10% FBS. For transfections, HEK-293T cells were grown in six well plates to about 80% confluency. Cells were transfected using Lipofectamine 2000 (invitrogen, USA) following manufacturer's recommendations. For viral replication assays, HUT-R5 T-cells were transfected using DEAE dextran as described in Waheed, A. A., Ono, A., and Freed, E. O.; Methods for the study of HIV-1 assembly; Methods Mol. Biol. Clifton N.J. 485, 163-184 (2009).
Preparation of viral stocks. Virus stocks were prepared by transfecting HEK-293T cells with HIV-1 DNAs (3 μg). 24 h post-transfection, the culture medium was replaced with fresh DMEM and incubated for another 2 h. Compounds tested were maintained in the culture throughout transfection. The culture supernatant was centrifuged at 845×g for 3 min to remove cellular debris. The clarified supernatants were filtered (pore size 0.45 µm filter disc) to remove residual cellular contaminants. For determination of viral infectivity, the un-concentrated virus was used to infect TZM-bl cells. For the CA-SP1 accumulation assay, the virus was pelleted by ultra-centrifugation at 210,100×g for 1 h at 4° C. using SW41Ti rotor (Beckman Coulter, USA).
CA-SP1 accumulation assay. To measure accumulation of CA-SP1, immunoblot analysis of virus-associated proteins was performed. The virus pellet was resuspended in radioimmunoprecipitation assay (RIPA) buffer (50 mM Tris-HCl pH 8.0, 150 mM sodium chloride, 1.0% NP-40, 0.5% sodium deoxycholate, 0.1% SDS) containing 1×protease inhibitor cocktail (Roche, Germany). The viral lysates were subjected to SDS-polyacrylamide gel electrophoresis (15% gel). Proteins were transferred to polyvinylidene difluoride membranes and reacted with HIV-IgG obtained from the NIH AIDS Reagent Program (catalog no. 3957) followed by incubation with HRP-conjugated anti-human secondary antibodies (GE Healthcare, UK). The proteins were visualized by enhanced chemiluminescence (Pierce, USA) and the bands were quantified using ImageJ software (http://imagej.nih.gov/ij/).

## C=C(C)[C@@H]1CC[C@]2(CCNCCN3CCS(=O)(=O)CC3)CC[C@]3(C)[C@H](CC[C@@H]4[C@@]5(C)CC[C@H](OC(=O)CC(C)(C)C(=O)O)C(C)(C)[C@@H]5CC[C@]43C)[C@@H]12 [Compound 51ee, (3β)-17-[[[2-[2-(1,1-Dioxothiomorpholin-4-yl)]Ethyl]Amino]Ethyl]-28-norlup-20(29)-en-3-ol, 3-(1-Hydrogen 2,2-Dimethylbutanedioate)]
[1]
  % CA-SP1 Accumulation 10 nM NL4-3: 73.5%
[2]
  CC50 at 4 days: > 100 nM
[3]
  % CA-SP1 Accumulation K3016 10 nM: 41.8%
  % CA-SP1 Accumulation K3016 100 nM: 48.3%

## C=C(C)[C@@H]1CC[C@]2(CCNCCN3CCN(S(C)(=O)=O)CC3)CC[C@]3(C)[C@H](CC[C@@H]4[C@@]5(C)CC[C@H](OC(=O)CC(C)(C)C(=O)O)C(C)(C)[C@@H]5CC[C@]43C)[C@@H]12 [Compound 51ff, (3β)-17-[2-[[2-[4-(Methylsulfonyl)piperazin-1-yl]ethyl]amino]ethyl]-28-norlup-20(29)-en-3-ol, 3-(1-Hydrogen 2,2-Dimethylbutanedioate)]
[1]
  % CA-SP1 Accumulation 10 nM NL4-3: 72.7 (3) %
[2]
  CC50 at 4 days: > 100 nM
[3]
  % CA-SP1 Accumulation K3016 10 nM: 36.7%
  % CA-SP1 Accumulation K3016 100 nM: 39.1%

## C=C(C)[C@@H]1CC[C@]2(CCNC3CCN(CCO)CC3)CC[C@]3(C)[C@H](CC[C@@H]4[C@@]5(C)CC[C@H](OC(=O)CC(C)(C)CC(=O)O)C(C)(C)[C@@H]5CC[C@]43C)[C@@H]12 [Compound 51f, (3β)-17-[2-[[1-(2-Hydroxyethyl)piperidin-4-yl]amino]ethyl]-28-norlup-20(29)-en-3-ol, 3-(Hydrogen 3,3-Dimethylpentanedioate), Bis(trifluoroacetate) Salt]
[1]; 100 nM compound
  % CA-SP1 Accumulation 100 nM NL4-3: 79.7 (3) %

## C=C(C)[C@@H]1CC[C@]2(CCNCCN3CCN(Cc4ccccc4)CC3)CC[C@]3(C)[C@H](CC[C@@H]4[C@@]5(C)CC[C@H](OC(=O)CC(C)(C)C(=O)O)C(C)(C)[C@@H]5CC[C@]43C)[C@@H]12 [Compound 51hh, (3β)-17-[2-[[2-[4-(Phenylmethyl)piperazin-1-yl]ethyl]amino]ethyl]-28-norlup-20(29)-en-3-ol, 3-(1-Hydrogen 2,2-Dimethylbutanedioate)]
[1]
  % CA-SP1 Accumulation 10 nM NL4-3: 66.4 (3) %
[2]
  CC50 at 4 days: > 100 nM
[3]
  % CA-SP1 Accumulation K3016 10 nM: 26.7%
  % CA-SP1 Accumulation K3016 100 nM: 43.8%

— patent US11236122B2, “Triterpene amine derivatives” (DFH THERAPEUTICS, priority 2018, dated 2022)
